Key:
Format in all cases: physicochemical
[1] = RF (13.56 MHz) heating rate of kosmotropic materials dissolved in PBS, 100 W; settings: 500 mg/m in PBS
Procedure: Sample temperature was measured using an infrared camera. The heating rates were calculated by a least-squares linear regression of the resultant temperature-time plot (FIG. 2B). Samples were heated from 23° C. to either 27° C. or for a duration of 60 seconds, whichever occurred first. Over this selected small temperature range, the variation of the temperature-dependence of dielectric properties was negligible.
The complex relative permittivity (∈′r and e″r) of all samples was measured over the frequency range of 10 MHz to 3 GHz (FIGS. 4A-B). From these measurements, the conductivity was obtained using the relationship σ=ω∈D∈″r. […]
Each of the materials listed in FIG. 5A were dissolved at 100, 250, and 500 mg/mL in phosphate buffered saline (PBS), a biologically iso-osmolar solution with similar conductivity (1.15 S/m) to blood and body tissues. […] RF heating rates and conductivity were measured according to the procedure described in Examples 1.1 and 1.2. […]
A variable power RF (13.56 MHz) Generator System (ThermMed, LLC, Erie, Pa.) was used to heat aqueous solutions. […] Sample temperatures were recorded using an infrared camera (FLIR SC 6000, FLIR Systems, Inc., Boston, Mass.) approximately every 0.17 s. […] Heating rates were calculated by fitting a linear regression to the temperature versus time plot of each sample for the duration of RF exposure.

[2] = RF heating rate and conductivity of bovine blood mixed with additives; settings: for effect of addition on blood conductivity and heating rate: 1-20% by weight in bovine blood; for additive content from which a significant increase in blood heating rate (p<0.005) was observed: by weight in bovine blood with 2-3% EDTA
Procedure: In a similar study, various additives were added to bovine blood containing 2-3% ethylenediamine tetraacetic acid (EDTA) to prevent coagulation. The additives tested were propylene glycol, glycerol, pure water and normal saline at concentrations of 1-20% by weight.
A variable power RF (13.56 MHz) Generator System (ThermMed, LLC, Erie, Pa.) was used to heat aqueous solutions. A high-voltage RF field is generated in the 8 cm air gap between the transmitting and receiving heads of the RF field generator. For aqueous experiments, samples were placed in a 1.3 mL quartz cuvette on a non-conducting Teflon holder mounted on an adjustable rotary stage at ambient temperature and open to air. The cuvette was placed 8 mm from the transmitting head of the RF field generator and exposed to the high-voltage RF field at 100 or 900 W generator power. Sample temperatures were recorded using an infrared camera (FLIR SC 6000, FLIR Systems, Inc., Boston, Mass.) approximately every 0.17 s. At both 100 W and 900 W, samples were heated from ambient temperature (i.e., ˜23° C.) to 27° C. or for a duration of 60 seconds, whichever occurred first. Heating rates were calculated by fitting a linear regression to the temperature versus time plot of each sample for the duration of RF exposure.
Previous experiments involved conductivity modulation of PBS, a biologically relevant aqueous solution commonly used in laboratory settings. […] Blood samples contained 2-3% ethylenediamine tetraacetic acid (EDTA) to prevent coagulation. A number of additives, including water, normal saline, propylene glycol and glycerol were mixed with blood at increasing weight percent content (1-20%).

[3] = RF heating of neat ethanol and oils, 900 W
Procedure: A variable power Kanzius External RF system (13.56 MHz) Generator System (ThermMed, LLC, Erie, Pa.) was used to heat aqueous solutions and tissue samples. A high-voltage RF field is generated in the 8 cm air gap between the transmitting and receiving heads of the RF-field generator. For aqueous experiments, samples were placed in a 1.3 mL quartz cuvette on a nonconducting Teflon holder mounted on an adjustable rotary stage at ambient temperature and open to air. The cuvette was placed 8 mm from the transmitting head of the RF-field generator and exposed to the high-voltage RF field at 900 W generator power. Sample temperatures were recorded using an infrared camera (FLIR SC 6000, FLIR Systems, Inc., Boston, Mass.) approximately every 0.17 seconds. Samples were heated from ambient temperature (i.e., ˜23° C. to ˜70° C. or for 120 seconds), whichever occurred first. Heating rates were calculated by fitting a linear regression to the temperature versus time plot of each sample for the duration of RF exposure or only for the first five seconds of RF exposure. The latter methodology allows for the assumption that the dielectric properties remain approximately constant in the time frame analyzed, as discussed herein.

[4] = RF-induced heating of m-/s-SWNT suspensions in NaCl solutions; settings: with 2% w/v Pluronic F108
Procedure: Once characterized, these m-/s-SWNT samples were then exposed to a high-intensity (˜90 kV/m) 13.56 MHz RF electric field. […] Approximately 1.3 mL of each sample was placed in a cylindrical quartz cuvette (˜1 cm height by ˜1 cm diameter) and exposed to the RF field for 120 seconds or until the temperature reached 70° C. to prevent electrical arcing. Thermal imaging data was captured using an FLIR SC 600 infrared camera. Videos were also recorded simultaneously using a Nikon SLR camera. Once the samples had been exposed, the SWNTs were removed from solution using a 100 KDa filter to collect the supernatant, which was then re-exposed to the RF field. The differential heating rates determined heat production from the SWNTs themselves and not the Pluronic F108/NaCl background.
Using the highest SWNT concentration of 100 mg/L, Applicants then sought to investigate SWNT heating rates versus host medium conductivity, which was modulated using NaCl solutions. Aqueous NaCl solutions (all with 2% w/v Pluronic F108) across the molarity range 10^4 to 10^3 mM were combined with m-/s-SWNTs at a concentration of 100 mg/L. These were then exposed to the RF field and filtered to remove the supernatant, which was then re-exposed.

[5] = RF heating of kosmotropic materials in PBS (Example 2); settings: 342 mg/mL in PBS
Procedure: Kosmotropic material solutions in phosphate buffered saline (PBS) were prepared using concentrated PBS to maintain equal ion concentration in all solutions. Kosmotropic materials (sucrose, maltose, trehalose, glycerol, propylene glycol, ethylene glycol) and all salts were obtained from Sigma-Aldrich in high purity (>98%) and used as received.
A variable power Kanzius External RF system (13.56 MHz) Generator System (ThermMed, LLC, Erie, Pa.) was used to heat aqueous solutions and tissue samples. A high-voltage RF field is generated in the 8 cm air gap between the transmitting and receiving heads of the RF-field generator. For aqueous experiments, samples were placed in a 1.3 mL quartz cuvette on a nonconducting Teflon holder mounted on an adjustable rotary stage at ambient temperature and open to air. […] Sample temperatures were recorded using an infrared camera (FLIR SC 6000, FLIR Systems, Inc., Boston, Mass.) approximately every 0.17 seconds. […] Heating rates were calculated by fitting a linear regression to the temperature versus time plot of each sample for the duration of RF exposure or only for the first five seconds of RF exposure. The latter methodology allows for the assumption that the dielectric properties remain approximately constant in the time frame analyzed, as discussed herein. […]

Row | Structure (SMILES) | effect of addition on blood conductivity and heating rate [2] | additive content from which a significant increase in blood heating rate (p<0.005) was observed [2] [%] | PBS heating rate with kosmotropic material [5] [° C./s] | other results
1 | CC(O)CO (stereo not drawn) [Propylene glycol, propylene glycol] | decrease in blood conductivity and increase in heating rate | 5 |  | increase of the heating rate of PBS [1]: 490%
2 | CCO [ethanol] |  |  |  | RF heating rate of neat material [3]: 0.09 ° C./s
3 | [Cl-].[Na+] [NaCl] |  |  |  | NaCl concentration at maximum heating [4]: 5 mM
4 | OC[C@H]1O[C@H](O[C@H]2[C@H](O)[C@@H](O)C(O)O[C@@H]2CO)[C@H](O)[C@@H](O)[C@@H]1O (mixture of isomers) [Maltose, maltose] |  |  | 0.32±0.01 | 
5 | OC[C@H]1O[C@H](O[C@H]2O[C@H](CO)[C@@H](O)[C@H](O)[C@H]2O)[C@H](O)[C@@H](O)[C@@H]1O [trehalose] |  |  | 0.33±0.01 | 
6 | OCC(O)CO [glycerol] | decrease in blood conductivity and increase in heating rate | 10 |  | 
